Test results published in the CheMixHub viscosity set.

Assay: xn = mol fraction of the nth substance listed
Conditions: 100 kPa

CCCCCCCCCCCC(=O)OCC + CCC1CCCCC1
viscosity [mPa·s]
Conditions	x2 = 0.1001	x2 = 0.1999	x2 = 0.3	x2 = 0.3999	x2 = 0.5001	x2 = 0.5999	x2 = 0.7	x2 = 0.7999	x2 = 0.9
293.15 K	3.07	2.768	2.476	2.193	1.919	1.663	1.429	1.219	1.023
298.15 K	2.752	2.485	2.228	1.977	1.742	1.519	1.318	1.134	0.963
303.15 K	2.479	2.251	2.027	1.808	1.597	1.402	1.222	1.057	0.901
308.15 K	2.232	2.036	1.841	1.651	1.468	1.296	1.131	0.981	0.837
313.15 K	2.033	1.86	1.686	1.516	1.352	1.197	1.05	0.913	0.786
318.15 K	1.87	1.716	1.561	1.406	1.258	1.119	0.987	0.864	0.745
323.15 K	1.697	1.562	1.423	1.289	1.159	1.036	0.92	0.81	0.7
